Test results from PubChem BioAssay AID1963865 (Molecular Pharmacology Branch, DTP, NCI, 2024).
pIC50: −log10 of the molar value.

Tested on: KRAS PDC multicell spheroid viability
Assay: Anticancer human tumor 825966-067-R-J1-PDC patient-derived colon carcinoma cell line growth inhibition [KRAS2]
Details: for pIC50: curve of first compound; for viability, T/C: stronger effect = lower value
Procedure, shortened: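 Combination screen of spheroid viability in tumor-cell co-cultures with endothelial (HUVEC) and mesenchymal stem cell stroma. Each agent was tested in half-log dilutions, topping at clinical Cmax or at 10 microM without a known Cmax.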

[1] = second compound 0.0316 µM, first compound 0.0316 µM
[2] = second compound 0.0316 µM, first compound 0.1 µM
[3] = second compound 0.0316 µM, first compound 0.316 µM
[4] = second compound 0.0316 µM, first compound 1 µM
[5] = second compound 0.0316 µM, first compound 3.16 µM
[6] = second compound 0.0316 µM, first compound 10 µM
[7] = second compound 0.1 µM, first compound 0.0316 µM
[8] = second compound 0.1 µM, first compound 0.1 µM
[9] = second compound 0.1 µM, first compound 0.316 µM
[10] = second compound 0.1 µM, first compound 1 µM
[11] = second compound 0.1 µM, first compound 3.16 µM
[12] = second compound 0.1 µM, first compound 10 µM
[13] = second compound 0.316 µM, first compound 0.0316 µM
[14] = second compound 0.316 µM, first compound 0.1 µM
[15] = second compound 0.316 µM, first compound 0.316 µM
[16] = second compound 0.316 µM, first compound 1 µM
[17] = second compound 0.316 µM, first compound 3.16 µM
[18] = second compound 0.316 µM, first compound 10 µM
[19] = second compound 1 µM, first compound 0.0316 µM
[20] = second compound 1 µM, first compound 0.1 µM
[21] = second compound 1 µM, first compound 0.316 µM
[22] = second compound 1 µM, first compound 1 µM
[23] = second compound 1 µM, first compound 3.16 µM
[24] = second compound 1 µM, first compound 10 µM
[25] = second compound 3.16 µM, first compound 0.0316 µM
[26] = second compound 3.16 µM, first compound 0.1 µM
[27] = second compound 3.16 µM, first compound 0.316 µM
[28] = second compound 3.16 µM, first compound 1 µM
[29] = second compound 3.16 µM, first compound 3.16 µM
[30] = second compound 3.16 µM, first compound 10 µM
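Also: spheroids exposed to compounds for 7 days.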
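For viability, T/C in this document: 100% = DMSO vehicle control viability.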

SMILES | pIC50 (second compound 0.0316 µM) | pIC50 (second compound 0.1 µM) | pIC50 (second compound 0.316 µM) | pIC50 (second compound 1 µM) | pIC50 (second compound 3.16 µM) | viability, T/C [1] | viability, T/C [2] | viability, T/C [3] | viability, T/C [4] | viability, T/C [5] | viability, T/C [6] | viability, T/C [7] | viability, T/C [8] | viability, T/C [9] | viability, T/C [10] | viability, T/C [11] | viability, T/C [12] | viability, T/C [13] | viability, T/C [14] | viability, T/C [15] | further results
COC(=O)c1ccc2c(C(=Nc3ccc(N(C)C(=O)CN4CCN(C)CC4)cc3)c3ccccc3)c(O)[nH]c2c1 + C=CC(=O)N1CCN(c2nc(OCC3CCCN3C)nc3c2CCN(c2cccc4cccc(C)c24)C3)CC1CC#N | 6.23 | 6.07 | 6.27 | 6.30 | 6.88 | 78.2% | 94.9% | 75% | 28.2% | 0.37% | 0.12% | 107% | 84.5% | 96.4% | 42% | 0.21% | 0.13% | 75.4% | 83.7% | 95.8% | viability, T/C [16]: 9.82%; viability, T/C [17]: 0.13%; viability, T/C [18]: 0.12%; viability, T/C [19]: 78.8%; viability, T/C [20]: 87.2%; viability, T/C [21]: 73.9%; viability, T/C [22]: 13.7%; viability, T/C [23]: 1.46%; viability, T/C [24]: 0.22%; viability, T/C [25]: 87%; viability, T/C [26]: 27.7%; viability, T/C [27]: 65.5%; viability, T/C [28]: 10.5%; viability, T/C [29]: 0.29%; viability, T/C [30]: 0.2%
COc1cc(Nc2ncc3c(n2)-c2ccc(Cl)cc2C(c2c(F)cccc2OC)=NC3)ccc1C(=O)O + C=CC(=O)N1CCN(c2nc(OCC3CCCN3C)nc3c2CCN(c2cccc4cccc(C)c24)C3)CC1CC#N | < 5.00 | < 5.00 | < 5.00 | < 5.00 | 5.35 | 136% | 129% | 144% | 137% | 138% | 127% | 129% | 142% | 123% | 129% | 122% | 140% | 124% | 154% | 112% | viability, T/C [16]: 134%; viability, T/C [17]: 129%; viability, T/C [18]: 141%; viability, T/C [19]: 104%; viability, T/C [20]: 150%; viability, T/C [21]: 153%; viability, T/C [22]: 135%; viability, T/C [23]: 121%; viability, T/C [24]: 114%; viability, T/C [25]: 45%; viability, T/C [26]: 130%; viability, T/C [27]: 73.1%; viability, T/C [28]: 104%; viability, T/C [29]: 67.1%; viability, T/C [30]: 8.84%
O=C(c1cc(Cc2n[nH]c(=O)c3ccccc23)ccc1F)N1CCN(C(=O)C2CC2)CC1 + C=CC(=O)N1CCN(c2nc(OCC3CCCN3C)nc3c2CCN(c2cccc4cccc(C)c24)C3)CC1CC#N | < 5.00 | < 5.00 | < 5.00 | < 5.00 | < 5.00 | 100% | 119% | 96.8% | 77.1% | 98.4% | 80.2% | 98.7% | 100% | 91.8% | 92.3% | 109% | 95.4% | 94.7% | 91.2% | 104% | viability, T/C [16]: 94.1%; viability, T/C [17]: 96.2%; viability, T/C [18]: 97.9%; viability, T/C [19]: 87.1%; viability, T/C [20]: 94.8%; viability, T/C [21]: 91%; viability, T/C [22]: 93.2%; viability, T/C [23]: 99.6%; viability, T/C [24]: 125%; viability, T/C [25]: 96.3%; viability, T/C [26]: 108%; viability, T/C [27]: 111%; viability, T/C [28]: 110%; viability, T/C [29]: 123%; viability, T/C [30]: 109%
